Measurements from patent publication US5403940A, “Vitamin D compound, method of preparing this compound and intermediate thereof” (Duphar International Research B.V., priority 1991, dated 1995).

Target: T1, calf thymus intracellular vitamin D receptor (VDR) (Bos taurus, UniProt Q28037)
T1 construct: calf thymus intracellular vitamin D receptor (VDR); from tissue; host or cells: calf thymus
T1 sequence (Q28037 1-426): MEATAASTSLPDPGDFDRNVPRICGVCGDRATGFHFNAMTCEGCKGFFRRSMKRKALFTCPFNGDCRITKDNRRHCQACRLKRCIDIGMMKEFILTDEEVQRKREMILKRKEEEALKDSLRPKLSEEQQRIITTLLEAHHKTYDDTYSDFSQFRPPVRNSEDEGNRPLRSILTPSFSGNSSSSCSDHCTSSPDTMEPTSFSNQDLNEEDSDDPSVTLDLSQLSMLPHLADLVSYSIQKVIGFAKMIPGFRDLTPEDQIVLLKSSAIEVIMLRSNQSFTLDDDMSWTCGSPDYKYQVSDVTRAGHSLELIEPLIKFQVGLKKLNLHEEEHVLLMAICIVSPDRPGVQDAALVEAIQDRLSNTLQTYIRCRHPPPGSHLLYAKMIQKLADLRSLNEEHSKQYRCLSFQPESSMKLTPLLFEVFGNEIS
Experiment: Affinity towards the calf thymus intracellular vitamin D receptor, replacement of 3H-calcitriol
Assay type: binding
Text: In this assay ^3 H-calcitriol (1α,25-dihydroxycholecalciferol), which is specifically bound to the VDR, is replaced by the tested compound.

IC50 (compound dissolved in ethanol, 10^-13 to 10^-7 M, 3H-calcitriol bound to VDR, read-out: IC50 value, i.e. 50% replacement of 3H-calcitriol): 0.25 nM
affinity to the VDR (conclusion drawn from the IC50): high affinity to the VDR
Compound: C=C1/C(=C\C=C2/CCC[C@]3(CO)[C@@H]([C@H](C)CCCC(C)(C)O)CC[C@@H]23)C[C@@H](O)C[C@@H]1O [compound 46]
